This note sets out measurements from US20250340591A1, “COMPOSITION FOR PREVENTING OR TREATING INFLAMMATORY BOWEL DISEASE CONTAINING NOVEL COMPOUND” (ANYGEN CO., LTD., priority 2021, published 2025).

The subject of series [1] is HT-29 cells. In words: cell proliferation of HT-29 intestinal epithelial cells (Cellvia kit, BrdU kit). It counts as cell-based. The settings on record: different concentrations, 24, 48 and 72 hours, FIG. 75. The protocol:
It is known from studies using GPR39 deficient mice that GPR39 is involved in the growth and differentiation of intestinal tissue cells (Phil. Trans. R. Soc. B., 2016, 371:20150420). Therefore, in order to confirm the effect of HKFY-34 on the growth of intestinal tissue cells, the degree of cell proliferation by HKFY-34 was measured using HT-29 cells (Korea Cell Line Bank), which are intestinal epithelial cells.
Specifically, HT-29 cells were cultured in a 96 well plate and then treated with HKFY-34 at different concentrations for 24, 48, and 72 hours. The cell proliferation of the cultured cells was measured using a Cellvia kit (AB frontier) and a BrdU cell proliferation kit (abcam).

Series [2] deals with HT-29 cells. Nature of the series: calcium ion concentration in HT-29 cells (Fluo-8). It is filed as cell-based. The settings on record: 10 uM, vs untreated group (vehicle), FIG. 76. The protocol: It is known from studies using GPR39 deficient mice that calcium signaling is involved in the growth of intestinal tissue cells by GPR39 (Phil. Trans. R. Soc. B. 2016, 371:20150420). Therefore, it was confirmed whether calcium signaling is involved in the cell growth promoted by HKFY-34.
Specifically, HT-29 cells were cultured in a 96-well black culture plate and then treated with HKFY-34, and the calcium ion concentration in the cells was measured using a Fluo-8 Direct™ calcium assay kit (Thermo Fisher Scientific). As a result, the calcium ion concentration in HT-29 cells was increased by HKFY-34 compared to the untreated group (vehicle) (FIG. 76).

Series [3] has as its system HT-29 cells. Nature of the series: tight junction factor (ZO-1, occludin) expression in HT-29 cells, qPCR and Western blot. The settings on record: HT-29, different concentrations, vs vehicle. It counts as cell-based. The procedure: It is known that GPR39 is involved in the protection of the gastrointestinal tract (Phil. Trans. R. Soc. B., 2016, 371:20150420). Therefore, in order to confirm the effect of HKFY-34 on the gastrointestinal tract protective function by GPR39, the promoting activity of HKFY-34 on tight junction was evaluated using HT-29 cells, which are important for intestinal tissue formation.
Specifically, the HT-29 cells were treated with HKFY-34 at different concentrations, and then the expression levels of mRNA (FIG. 77) and protein (FIG. 78) of ZO-1 and occludin, which are important factors of tight junction in intestinal barrier function, were confirmed through quantitative RT-PCR (qPCR) and Western blot.

In a further series the test system is AMPK. In words: phosphorylation of AMPK in HT-29 cells, Western blot. It counts as cell-based. From the text:
It is known that tight junctions are mediated by a signaling mechanism due to phosphorylation of AMPK protein. Therefore, in order to confirm whether AMPK is involved in the increase in tight junctions by HKFY-34, the expression of p-AMPK in the cells was confirmed using HT-29 cells (FIGS. 79 and 80).
In addition, when treated with HKFY-34 after pretreatment with an AMPK inhibitor (STO-609), it was confirmed that the expression level of p-AMPK, which was increased due to HKFY-34 treatment, was decreased (FIG. 80).
(Immunoblotting shows a protein as a band on a membrane.)

Series [4] concerns ulcerative colitis-induced GPR39 deficient mice (Gpr39−/−). Nature of the series: DSS-induced ulcerative colitis in GPR39 deficient mice. It is filed as in vivo. The procedure:
In order to confirm the effect of HKFY-34 in an inflammatory bowel disease model using GPR39 as a target substance, a disease model of ulcerative colitis was prepared using GPR39 deficient mice (GPR39 knock out (KO), Gpr39^−/−). At this time, wild type mice born from a litter were set as a control group for each treated group of GPR39 deficient mice.
Specifically, an animal model of ulcerative colitis was prepared by feeding GPR39 deficient mice (Lexicon pharmaceuticals) and wild type mice with water containing 3% DSS in the same manner as in Experimental Example 7. GPR39 KO mice fed with only DSS (vehicle+3% DSS) were set as a negative control group, and GPR39 KO mice administered with HKFY-34 (10 mg/kg) (HKFY-34 10 mg/kg+3% DSS) were set as a test group. Intraperitoneal administration was performed once a day for 5 days.

The next series addresses T1, GPR39 (Homo sapiens, UniProt O43194).
T1 sequence (O43194 1-453): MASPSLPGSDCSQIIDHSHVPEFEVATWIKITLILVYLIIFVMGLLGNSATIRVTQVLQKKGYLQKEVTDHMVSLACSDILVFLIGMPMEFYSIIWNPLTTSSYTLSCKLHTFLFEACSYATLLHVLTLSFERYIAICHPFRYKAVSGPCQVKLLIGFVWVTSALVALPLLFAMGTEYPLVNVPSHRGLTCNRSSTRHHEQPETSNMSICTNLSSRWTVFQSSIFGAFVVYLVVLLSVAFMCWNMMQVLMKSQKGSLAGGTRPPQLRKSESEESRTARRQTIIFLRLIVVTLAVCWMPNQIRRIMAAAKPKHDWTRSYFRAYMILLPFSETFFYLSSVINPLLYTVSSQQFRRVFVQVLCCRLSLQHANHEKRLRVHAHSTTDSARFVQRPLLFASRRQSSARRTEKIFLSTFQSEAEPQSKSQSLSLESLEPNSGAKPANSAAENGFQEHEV
In words: calcium influx assay system (aequorin, CV-1 cells). The settings on record: CV-1 transfected with hGPR39, Gαq. On the set-up: host or cells: CV-1 fibroblast cell line, lipofectamine transfection. It counts as cell-based. From the text:
After culturing, the degree of binding of calcium activated by activated GPR39 to aequrin was quantified using a luminometer (bottom in FIG. 73).

`CCCCCCCC(=O)NCCCC[C@H](NC(=O)[C@@H](N)Cc1cn(C(c2ccccc2)c2ccccc2)cn1)C(=O)N[C@H](Cc1ccc(C)cc1)C(=O)N[C@@H](Cc1ccc(O)cc1)C(=O)O` [HKFY-34, ((R)-2-((S)-2-((S)-2-amino-3-(1-benzhydryl-1H-imidazol-4-yl)propanamido)-6-octanamidohexanamido)-3-(p-tolyl)propanoyl)-L-tyrosine]: the “proliferation of HT-29 cells” value in the series with HT-29 cells [1] is recorded as “increased by HKFY-34 in a dose-dependent manner”. The “calcium ion concentration in HT-29 cells” value in the series with HT-29 cells [2] is recorded as “increased”. Moreover, in the series with HT-29 cells [3] (Western blot, FIG. 78), the “protein expression level of ZO-1” value is “significantly increased by HKFY-34 in a dose-dependent manner” and the “protein expression level of occludin” value is given as “significantly increased by HKFY-34 in a dose-dependent manner”. In addition, in the series with HT-29 cells [3] (qPCR, FIG. 77), the “mRNA expression level of ZO-1” value is recorded as “significantly increased by HKFY-34 in a dose-dependent manner” and the “mRNA expression level of occludin” value is reported as “significantly increased by HKFY-34 in a dose-dependent manner”. Moreover, in the series on AMPK (HT-29, different concentrations, vs vehicle, FIG. 79), the “expression of p-AMPK protein” value was “increased by HKFY-34 in a dose-dependent manner”. In addition, the “expression level of p-AMPK after pretreatment with AMPK inhibitor” value with AMPK (HT-29, pretreatment with STO-609 1 μM, vs HKFY-34 treatment, FIG. 80) is given as “decreased”. Also, in series [4] (10 mg/kg intraperitoneal for 5 days, FIG. 92), the “inhibitory effect on the reduction of colon length” value is “not observed”. In addition, the “effect of reducing inflammatory damage of colon tissue (H&E staining)” value in series [4] (10 mg/kg intraperitoneal for 5 days, FIG. 95) was “not observed”. Further, the “inhibitory effect on body weight loss” value in series [4] (10 mg/kg intraperitoneal once a day for 5 days, 3% DSS, FIG. 91) is given as “no inhibitory effect”. Further, the “effect of alleviating stool consistency” value in series [4] (10 mg/kg intraperitoneal, vs negative control, FIG. 93) is given as “not observed”. Also, the “effect of alleviating blood in stool” value in series [4] (10 mg/kg intraperitoneal, vs negative control, FIG. 94) is on record as “not observed”. Besides, at GPR39, the “Ca2+ influx assay ECmax (−fold induction over basal)” value is 2.4 ± 4.59 fold induction over basal.
